The values below come from patent US6380164B1, “Method for treating cytokine mediated hepatic injury” (University of Kentucky Research Foundation, priority 1999, dated 2002).

The subject of the test is Male BALB/c HSD mice. The test is described as follows: Survival of mice rendered hepatotoxic by LPS/GAL treatment (hepatic failure / septic shock model). It is filed as in vivo. As to conditions: for survival time compared to mice receiving LPS/GAL only: mice made septic by LPS/GAL treatment, 4 mg/kg intraperitoneal x5, result in words; for SURVIVAL 15 Hours (number of surviving mice) / SURVIVAL 15 Hours (percent of mice) / SURVIVAL 20 Hours (number of surviving mice) / SURVIVAL 20 Hours (percent of mice) / SURVIVAL 40 Hours (number of surviving mice) / SURVIVAL 40 Hours (percent of mice) / SURVIVAL 65 Hours (number of surviving mice) / SURVIVAL 65 Hours (percent of mice): n=15 mice, 4 mg/kg intraperitoneal at 0 h, 2 h, 4 h, 6 h and 7.5 h, LPS/GAL at 6.5 h; for SURVIVAL 15 Hours (number of surviving mice) / SURVIVAL 15 Hours (percent of mice): 15 h after the last injection; for SURVIVAL 20 Hours (number of surviving mice) / SURVIVAL 20 Hours (percent of mice): 20 h after the last injection; for SURVIVAL 40 Hours (number of surviving mice) / SURVIVAL 40 Hours (percent of mice): 40 h after the last injection; for SURVIVAL 65 Hours (number of surviving mice) / SURVIVAL 65 Hours (percent of mice): 65 h after the last injection. The procedure: Hepatic failure was induced in mice by intraperitoneal injections of a mixture of lipopolysaccharide (LPS) ([…]) and D-galactosamine (GAL) (700 mg/kg) to form LPS/GAL. LPS is a bacterial endotoxin that is a major stimulus for production of many cytokines, particularly tumor necrosis factor (TNF), thought to be involved in liver injury. GAL is an amino sugar that sensitizes hepatocytes by depleting the base uridine and thus preventing hepatic transcription, and sensitizes animals to normally innocuous amounts of endotoxin or TNF. The LPS/GAL treatment induces fulminate hepatic and multiorgan failure, and serves as a model for septic shock. The major effects of LPS/GAL are elicited by the inflammatory cytokine TNF-α. Hepatocytes sensitized to TNF-α then undergo apoptosis or programmed cell death in response to inflammatory processes.
Mice were treated with deltorphin and were subsequently rendered hepatotoxic by LPS/GAL treatment. An emulsion of deltorphin I SEQ ID NO:1 (Tyr-D-Ala-Phe-Asp-Val-Val-Gly-NH2) was prepared at a concentration of 80 μg/200 μl in sterile phosphate buffered saline (PBS). An emulsion of DADLE (Tyr-D-Ala-Gly-Phe-D-Leu-enkephalin) was also prepared at a concentration of 80 μg/200 μl in sterile PBS. Male BALB/c HSD mice were treated by intraperitoneal injections according to the following protocol. Control mice (n=7) received only LPS/GAL (280 μl) at 6.5 h. Deltorphin I SEQ ID NO:1 treated mice (n=15) received injections of 4 mg/kg deltorphin I SEQ ID NO:1 at 0 h, 2 h, 4 h, 6 h and 7.5 h and received an LPS/GAL injection at 6.5 h. DADLE treated mice (n 15) received 4 mg/kg DADLE at 0 h, 2 h, 4 h, 6 h and 7.5 h and received an LPS/GAL injection at 6.5 h.
Both control and treated mice were monitored at 15 h, 20 h, 40 h and 65 h after the last injection.

Regarding `CC(C)C[C@@H](NC(=O)[C@H](Cc1ccccc1)NC(=O)CNC(=O)[C@@H](C)NC(=O)[C@@H](N)Cc1ccc(O)cc1)C(=O)O` [DADLE, Tyr-D-Ala-Gly-Phe-D-Leu-enkephalin], the “survival time compared to mice receiving LPS/GAL only” value is reported as “not as striking at any time point”, the “SURVIVAL 15 Hours (number of surviving mice)” value was 3, the “SURVIVAL 15 Hours (percent of mice)” value is reported as 20% and the “SURVIVAL 20 Hours (number of surviving mice)” value is recorded as 3. The “SURVIVAL 20 Hours (percent of mice)” value is reported as 20%, the “SURVIVAL 40 Hours (number of surviving mice)” value was found to be 3, the “SURVIVAL 40 Hours (percent of mice)” value turned out to be 20% and the “SURVIVAL 65 Hours (number of surviving mice)” value is on record as 3. The “SURVIVAL 65 Hours (percent of mice)” value was determined as 20%.

Consider “Tyr-D-Ala-Phe-Asp-Val-Val-Gly-NH2 [deltorphin I SEQ ID NO:1]”, for which the “survival time compared to mice receiving LPS/GAL only” value is “markedly increased survival time”, the “SURVIVAL 15 Hours (number of surviving mice)” value is reported as 12, the “SURVIVAL 15 Hours (percent of mice)” value is given as 80% and the “SURVIVAL 20 Hours (number of surviving mice)” value was found to be 11. For the same compound, the “SURVIVAL 20 Hours (percent of mice)” value was 73%, the “SURVIVAL 40 Hours (number of surviving mice)” value is given as 11, the “SURVIVAL 40 Hours (percent of mice)” value worked out at 73% and the “SURVIVAL 65 Hours (number of surviving mice)” value was determined as 11. Also, the “SURVIVAL 65 Hours (percent of mice)” value was 73%.
